SMILES strings stand for the structures. “And” between values parts separate entries of the source, which are not always exact repeats. Equal values may be shown once.

For series [1], the system named is lipid peroxidation (brain homogenate). As to the kind of experiment: Inhibitory action of lipid peroxidation in brain homogenate (TBA value). The format is biochemical. The conditions noted are these: inhibition of lipid peroxidation, rat brain homogenate, 37° C., 30 minutes. Here is the method:
(1) Inhibitory action of lipid peroxidation (a) Preparation of brain homogenate By use of Wister-strain male rat, brain homogenate was prepared following the procedure as described below. […] Next, a brain perfusion was conducted through the tube with ice-cooled 50 mM phosphate-buffered physiological saline (pH 7.4) hereinafter referred to as "PBS"), and the whole brain was extirpated. After removal of cerebellum, the wet weight of cerebrum was measured and, with addition of 9-fold amount of PBS, it was broken by a Teflon homogenizer in ice-water to be homogenized. After the brain homogenate was subjected to centrifugation at 4° C. at 2200 rpm for 10 minutes, 0.3 ml of the supernatant was apportioned into a light-shielding test tube equipped with a ground stopper, to provide a brain homogenate for evaluation of medicine. (b) Evaluation of test medicine To the brain homogenate produced in (a), 0.6 ml of PBS and 10 μl of ethanolic solution of a test medicine were added (to a final concentration of 500 μM or a concentration at a common ratio of 3 between 0.3 and 100 μm), and the mixture was heated in a warm bath at 37° C. for 30 minutes. […] Also, the same operation was performed by addition of 10 μl of ethanol (blank) in place of 10 μl ethanolic solution of the test medicine for measurement of blank. […] After shaking for about 30 seconds, the mixture was subjected to centrifugation at 3000 rpm for 10 minutes, and the supernatant was provided as a sample for measurement of peroxidized lipid.

For series [2], the system named is myocardial ischemia (isolated heart, cardiac output). As to the kind of experiment: Protective action for myocardial ischemia (isolated perfused working heart). Further details: species or system Wistar strain male rats. The source says: Protective action for myocardial ischemia
When coronary blood flow transporting nutritions to cardiac muscles is interrupted (disorder in blood flow) or recirculated (disorder in recirculation) by a certain cause, cardiac muscles will be damaged (disorder of mycardial ischemia). The degree of such disorder in cardiac muscles will be advanced as the period of ischemia state is prolonged to cause various ischemic cardiac disorders such as the so-called myocardial infarction and cardiac insufficiency.
Accordingly, the protective effect of the Compound No. 1, as a typical compound, on cardiac muscles were examined as described below.
In the experiment, Wistar strain male rats weighing 300 to 400 g were used. The heart was extirpated into a Krebs-Henseleit bicarbonate (KH) solution which had been oxygenated with 95% O2 -5% CO2, under anesthesia by intraperitoneal administration of 50 mg/kg of pentobarbital sodium. Immediately after the isolation, a cannula was intubated into the aorta ascendens, and perfusion was started according to the Langendorff method (75 cm H2 O). Subsequently, the cannula was intubated into the left artium. Then, perfusion in accordance with the Langerdorff method was further conducted for 10 minutes, and then the left artium cannula was opened change the mode of perfusion to that of the working heart method (preload 10 cm H2 O, afterload 80 cm H2 O) (American Journal of Physiology, 212, 804, 1967), which was conducted for 15 minutes. Next, in accordance with the method of Ichihara et al (Journal of Cardiovascular Pharmacology, 5, 745, 1983), the afterload on the aorta was released to provide an ischemic state in the cardiac muscles for 20 minutes. Since five minutes before the initiation of the ischemic state, the perfusate was changed to the one containing the test medicine and such perfusate was used also during the period of the ischemic state. Reperfusion was conducted for 30 minutes with a perfusate containing no test medicine with the afterload of 80 cm H2 O. In order to determine the cardiac functions, coronal perfusion flow (CF), cardiac output (CO), heart rate (HR), aorta pressure (AP) and rate pressure product (HR×AP) were measured. The CF was measured by use of a 10 ml measuring cylinder. The CO was measured through a direct blood flow measuring probe (Model FF-030, 30, produced by Nihon Kohden K.K.) disposed immediately in front of the left artium cannula, by use of an electromagnetic blood flow meter (Model MFV-2100, produced by Nihon Kohden K.K.) and an amplifier for bioelectricity (Mode AB-621G, produced by Nihon Kohden K.K,). The AP was measured through a pressure transducer (Model MPU-0.5, produced by Nihon Kohden K.K.) connected to the aortic cannula, by use of an amplifier for distortion pressure (Model AP-601G, produced by Nihon Kohden K.K.). The HR was measured by use of an cardiotacho meter (Model AT-601G, produced by Nihon Kohden K.K.). The rate pressure product (HR×AP) was calculated by multiplying the HR by the aortic pressure.
As the perfusate, a KH solution, which had been oxygenated with 95% O2 -5% CO2 and heated to 37° C. was used. The formulation of the KH solution (unit: mM) is as follows. NaCl 118, KCl 4.7, CaCl2 2.5, MgSO4 1.2, KH2 PO4 1.2, NaHCO3 25 and glucose 11. […]
Changes in the cardiac functions after treatment with the test medicine and recovery thereof at reperfusion are indicated in terms of percentage based on the value measured before the treatment with the test medicine. […]

In series [3] the test system is cerebral ischemia recirculation model. The series can be described thus: Protective action in cerebral ischemia recirculation model. The format is in vivo, Wistar-strain male rat. Further details: key to Judgement of action: The case when restoration of electroencephalogram is judged as +; case when not recognized as -. The conditions noted are these: 3 mg/kg.
For series [4] the following is noted: National Cancer Institute Report, 1978; cited from earlier work.
Series [5] deals with rat. The conditions noted are these: rat oral administration; cited from earlier work.

Broadly, the IC50 is the midpoint of a concentration-inhibition curve. A word on the LD50: it is the dose expected to kill half of the subjects tested. `CC1=NN(c2ccccc2)C(=O)C1` [Compound 1, 3-methyl-1-phenyl-2-pyrazolin-5-one] yielded an IC50 in series [1] of 18.2 µM. In addition, the “protective action for myocardial ischemia (in words)” value in series [2] is “exhibits protective action for myocardial ischemia”. Further, in series [2] (10^-5 M, 30 minutes after reperfusion after 20 min ischemia, N = 5, mean ± standard error (Table 5)), the “Recovery of the cardiac output (CO)” value came to 23.8 ± 14.6%. Further, the “Recovery of the cardiac functions (CO 50% or more), percentage” value in series [2] (30 minutes after reperfusion) is 40%. The “average recovery action based on the cardiac output (CO)” value in series [2] (30 minutes after reperfusion after 20 min cardiac ischemia) turned out to be 24%. For the same compound, the “Number of recovery of the cardiac functions (CO 50% or more)” value in series [2] (hearts recovered/total, 30 minutes after reperfusion) is 2/5. Also, the “Survival time after recirculation, average” value in series [3] (average) was 106 min. In series [3] (individual animal), the Judgement of action entry is “+ and -”; the “Survival time after recirculation” value is 85 min and 126 min. In series [4], the carcinogenicity entry is “free from carcinogenicity”. The LD50 in series [5] is 3500 mg/kg.

These data come from patent publication USRE35801E, “Prophylactic and therapeutic composition for circulatory disorders and method of treatment” (priority 1985, dated 1998).
